# Source: US20060063759A1, “Tricyclic steroid hormone nuclear receptor modulators” (priority 2002, published 2006)
# pKi: −log10 of the molar value.
# Columns and labels:
# human MR = target: T1, human MR (Homo sapiens, UniProt P08235); experiment: Mineralocorticoid Receptor Binding Assay ([3H]-aldosterone); conditions: [3H]-aldosterone binding, human MR expressed in Sf9 cells; read-out: MR Ki
# T1 construct: The full length human MR gene is cloned from a human kidney or human brain cDNA library; His tag from the pAcHLT vector (own knowledge); made in house; host or cells: Sf9 insect cells (baculovirus, pAcHLT transfer vector)
# T1 sequence (P08235 1-984): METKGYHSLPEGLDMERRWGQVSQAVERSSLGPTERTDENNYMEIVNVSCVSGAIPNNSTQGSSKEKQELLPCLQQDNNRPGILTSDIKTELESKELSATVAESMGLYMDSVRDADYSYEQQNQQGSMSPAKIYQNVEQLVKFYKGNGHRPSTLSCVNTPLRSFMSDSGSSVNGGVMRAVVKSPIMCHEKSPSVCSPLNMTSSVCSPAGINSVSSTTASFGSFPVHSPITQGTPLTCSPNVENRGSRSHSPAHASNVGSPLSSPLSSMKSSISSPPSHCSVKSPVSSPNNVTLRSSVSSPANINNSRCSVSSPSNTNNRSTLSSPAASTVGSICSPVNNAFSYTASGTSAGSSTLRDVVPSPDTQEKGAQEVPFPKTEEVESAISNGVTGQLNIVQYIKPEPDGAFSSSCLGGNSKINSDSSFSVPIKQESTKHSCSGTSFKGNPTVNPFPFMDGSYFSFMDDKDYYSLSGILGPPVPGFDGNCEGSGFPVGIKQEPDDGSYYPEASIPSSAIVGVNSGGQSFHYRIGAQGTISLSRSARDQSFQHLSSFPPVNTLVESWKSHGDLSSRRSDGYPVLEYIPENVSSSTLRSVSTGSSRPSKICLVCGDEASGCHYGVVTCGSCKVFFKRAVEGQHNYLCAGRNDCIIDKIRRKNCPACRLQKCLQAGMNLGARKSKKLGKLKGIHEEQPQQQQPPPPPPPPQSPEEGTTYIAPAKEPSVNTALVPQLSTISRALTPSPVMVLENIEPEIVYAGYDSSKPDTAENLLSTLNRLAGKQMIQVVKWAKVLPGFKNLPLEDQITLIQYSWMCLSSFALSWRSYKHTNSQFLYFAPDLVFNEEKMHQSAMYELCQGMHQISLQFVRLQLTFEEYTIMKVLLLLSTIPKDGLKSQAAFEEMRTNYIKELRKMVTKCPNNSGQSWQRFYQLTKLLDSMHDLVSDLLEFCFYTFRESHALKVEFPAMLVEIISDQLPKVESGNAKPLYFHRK
# In short: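 Receptor source: freeze-thaw lysate of baculovirus-infected Sf9 cells carrying full-length human MR, 20-25 μg protein. Incubation ~16 h at 4 °C with shaking, pH 7.5 buffer containing 30 mM sodium molybdate and 10% glycerol.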
# glucocorticoid receptor = target: T2, glucocorticoid receptor (Homo sapiens, UniProt P04150); experiment: Glucocorticoid Receptor Binding Assay ([3H]-dexamethasone, A549 cell extract); conditions: [3H]-dexamethasone binding, read-out: GR Ki
# T2 construct: containing 50-200 ug of A549 cell extract and 1.86 nM [^3H]-dexamethasone; host or cells: A549 human lung epithelial cells (sonicated cell extract)
# T2 sequence (P04150 1-777): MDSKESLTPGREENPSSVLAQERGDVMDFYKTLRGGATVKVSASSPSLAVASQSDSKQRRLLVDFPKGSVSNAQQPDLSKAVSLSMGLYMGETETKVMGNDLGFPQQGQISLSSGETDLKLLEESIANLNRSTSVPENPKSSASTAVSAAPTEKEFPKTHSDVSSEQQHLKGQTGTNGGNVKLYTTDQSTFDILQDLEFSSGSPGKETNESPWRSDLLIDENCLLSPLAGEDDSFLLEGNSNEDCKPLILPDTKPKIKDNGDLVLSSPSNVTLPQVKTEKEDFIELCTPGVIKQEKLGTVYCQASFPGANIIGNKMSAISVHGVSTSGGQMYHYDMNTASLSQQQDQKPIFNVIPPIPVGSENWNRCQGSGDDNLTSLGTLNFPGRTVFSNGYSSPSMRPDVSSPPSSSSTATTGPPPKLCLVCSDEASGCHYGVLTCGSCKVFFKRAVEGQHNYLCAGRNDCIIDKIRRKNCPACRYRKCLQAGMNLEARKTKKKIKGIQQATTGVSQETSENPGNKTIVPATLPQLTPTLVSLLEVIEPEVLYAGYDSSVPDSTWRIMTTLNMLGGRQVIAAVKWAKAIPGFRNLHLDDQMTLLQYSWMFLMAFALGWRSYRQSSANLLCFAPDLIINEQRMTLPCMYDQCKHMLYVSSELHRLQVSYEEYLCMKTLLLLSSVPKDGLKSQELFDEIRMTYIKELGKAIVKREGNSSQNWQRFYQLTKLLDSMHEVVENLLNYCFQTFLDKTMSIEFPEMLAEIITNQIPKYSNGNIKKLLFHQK
# In short: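 Displacement of [3H]-dexamethasone (1.86 nM) from glucocorticoid receptor in sonicated A549 lung epithelial cell extracts, 16 h at 4 °C, pH 7.2 molybdate-containing buffer. Bound radioactivity was scintillation-counted after charcoal/dextran stripping of free ligand.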
smiles,measurement,setting,value
OCc1cccc(/C=C2\c3ccccc3CSc3ccccc32)c1 [Example 699],pKi,human MR,> 6.30
same,pKi,glucocorticoid receptor,> 6.30
O=S(=O)(Cc1cccc(/C=C2\c3ccccc3CSc3ccccc32)c1)c1cccc(C(F)(F)F)c1 [Example 700],pKi,human MR,> 6.30
same,pKi,glucocorticoid receptor,> 6.30
C(=C1c2ccccc2CSc2ccccc21)c1ccccc1 [Example 701],pKi,human MR,> 6.30
same,pKi,glucocorticoid receptor,> 6.30
CS(=O)(=O)Nc1cccc(C=C2c3ccc(Cl)cc3CSc3cc(Cl)ccc32)c1 [Example 702],pKi,human MR,> 6.30
same,pKi,glucocorticoid receptor,> 5.00
COc1cccc2c1/C(=C/c1cccc(NS(C)(=O)=O)c1)c1ccccc1OC2 [Example 703],pKi,human MR,> 6.30
same,pKi,glucocorticoid receptor,> 6.30
COc1cccc2c1/C(=C\c1cccc(NS(C)(=O)=O)c1)c1ccccc1OC2 [Example 704],pKi,human MR,> 6.30
same,pKi,glucocorticoid receptor,> 6.30
COc1ccc2c(c1)COc1ccccc1/C2=C\c1cccc(NS(C)(=O)=O)c1 [Example 705],pKi,human MR,> 6.30
same,pKi,glucocorticoid receptor,> 6.30
COc1ccc2c(c1)OCc1ccccc1/C2=C/c1cccc(NS(C)(=O)=O)c1 [Example 706],pKi,human MR,> 6.30
same,pKi,glucocorticoid receptor,> 6.30
COc1cccc2c1COc1ccccc1/C2=C\c1cccc(NS(C)(=O)=O)c1 [Example 707],pKi,human MR,> 6.30
same,pKi,glucocorticoid receptor,> 6.30
COc1cccc2c1COc1ccccc1/C2=C/c1cccc(NS(C)(=O)=O)c1 [Example 708],pKi,human MR,> 6.30
same,pKi,glucocorticoid receptor,> 6.30
O=c1[nH]c2cc(/C=C3/c4ccccc4COc4cc(F)ccc43)ccc2n1C1CC1 [Example 709],pKi,human MR,> 6.30
same,pKi,glucocorticoid receptor,> 6.30
CC(C)Cn1c(=O)[nH]c2cc(/C=C3\c4ccccc4COc4cc(F)ccc43)ccc21 [Example 710],pKi,human MR,> 6.30
same,pKi,glucocorticoid receptor,> 6.30
CC(C)Cn1c(=O)[nH]c2cc(/C=C3/c4ccccc4COc4cc(F)ccc43)ccc21 [Example 711],pKi,human MR,> 6.30
same,pKi,glucocorticoid receptor,> 6.00
O=c1[nH]c2cc(/C=C3/c4ccccc4COc4cc(F)ccc43)ccc2n1CCN1CCOCC1 [Example 712],pKi,human MR,> 6.30
same,pKi,glucocorticoid receptor,> 6.30
O=c1[nH]c2ccc(C=C3c4ccccc4OCc4c(F)cccc43)cc2[nH]1 [Example 713],pKi,human MR,> 6.30
same,pKi,glucocorticoid receptor,> 6.30
O=c1[nH]c2ccc(C=C3c4cc(F)ccc4COc4ccccc43)cc2[nH]1 [Example 714],pKi,human MR,> 6.30
same,pKi,glucocorticoid receptor,> 5.00
O=c1[nH]c2ccc(C=C3c4cc(Cl)ccc4COc4ccccc43)cc2[nH]1 [Example 715],pKi,human MR,> 6.30
same,pKi,glucocorticoid receptor,> 6.00
O=c1[nH]c2cc(/C=C3/c4ccc(F)cc4OCc4ncsc43)ccc2n1CCN1CCOCC1 [Example 718],pKi,human MR,> 6.30
same,pKi,glucocorticoid receptor,> 5.00
O=S(=O)(CC(F)(F)F)Nc1cccc(C=C2c3ccc(Cl)cc3CSc3cc(Cl)ccc32)c1 [Example 721],pKi,human MR,> 6.30
same,pKi,glucocorticoid receptor,> 6.30
CS(=O)(=O)NCc1cccc(/C=C2\c3ccccc3CSc3ccccc32)c1 [Example 722],pKi,human MR,> 6.30
same,pKi,glucocorticoid receptor,> 6.30
CS(=O)(=O)Nc1cccc(/C=C2\c3ccc(F)cc3COc3ccccc32)c1 [Example 723],pKi,human MR,> 6.30
same,pKi,glucocorticoid receptor,> 6.30
CS(=O)(=O)Nc1cccc(/C=C2/c3ccc(F)cc3COc3ccccc32)c1 [Example 724],pKi,human MR,> 6.30
same,pKi,glucocorticoid receptor,> 6.30
CS(=O)(=O)Nc1cccc(/C=C2\c3ccc(Cl)cc3COc3ccccc32)c1 [Example 725],pKi,human MR,> 6.30
same,pKi,glucocorticoid receptor,> 6.30
CS(=O)(=O)Nc1cccc(/C=C2/c3ccc(Cl)cc3COc3ccccc32)c1 [Example 726],pKi,human MR,> 6.30
same,pKi,glucocorticoid receptor,> 6.30
CS(=O)(=O)Nc1cccc(/C=C2\c3cc(Cl)ccc3COc3ccccc32)c1 [Example 727],pKi,human MR,> 6.30
same,pKi,glucocorticoid receptor,> 6.30
CS(=O)(=O)Nc1cccc(/C=C2/c3cc(Cl)ccc3COc3ccccc32)c1 [Example 728],pKi,human MR,> 6.30
same,pKi,glucocorticoid receptor,> 6.30
CS(=O)(=O)Nc1cccc(/C=C2/c3cc(F)ccc3COc3ccccc32)c1 [Example 729],pKi,human MR,> 6.30
same,pKi,glucocorticoid receptor,> 6.30
CS(=O)(=O)Nc1cccc(/C=C2\c3cc(F)ccc3COc3ccccc32)c1 [Example 730],pKi,human MR,> 6.30
same,pKi,glucocorticoid receptor,> 6.30
